Measured values as given in ChEMBL document CHEMBL4477230, “Cytotoxic effect of levoglucosenone and related derivatives against human hepatocarcinoma cell lines” (Bioorg Med Chem Lett, 2016).
pIC50: −log10 of the molar value.

Key:
Type in all cases: functional, cell-based
[1] = test system: Huh-7; test: Cytotoxicity against human HuH7 cells assessed as reduction in cell growth after 48 hrs by MTT assay; settings: for pIC50: Homo sapiens, Huh-7, 48 h, read-out: IC50; for IC50: huh-7
[2] = test system: HepG2; test: Cytotoxicity against human HepG2 cells assessed as reduction in cell growth after 48 hrs by MTT assay; settings: for pIC50: Homo sapiens, HepG2, 48 h, read-out: IC50; for IC50: hepg2
[3] = test system: Huh-7; test: Cytotoxicity against human HuH7 cells assessed as reduction in cell growth after 48 hrs by MTS assay; settings: Huh-7, 48 h
[4] = test system: HepG2; test: Cytotoxicity against human HepG2 cells assessed as reduction in cell growth after 48 hrs by MTS assay; settings: HepG2, 48 h

Compound: O=C1C[C@H](Sc2ccccc2)[C@H]2CO[C@@H]1O2
- pIC50 [1]: 4.96
- pIC50 [2]: 4.77

Compound: CCCCS[C@H]1CC(O)[C@@H]2OC[C@H]1O2 (some centres undefined)
- IC50 [1]: Not Active
- IC50 [2]: Not Active

Compound: O=C1C=C[C@H]2CO[C@@H]1O2
- pIC50 [1]: 4.89
- pIC50 [2]: 4.40

Compound: CCCCCCS[C@H]1CC(=O)[C@@H]2OC[C@H]1O2
- IC50 [1]: Not Active
- IC50 [2]: Not Active

Compound: CNC(=O)c1cc(Oc2ccc(NC(=O)Nc3ccc(Cl)c(C(F)(F)F)c3)cc2)ccn1 [SORAFENIB]
- pIC50 [3]: 4.95
- pIC50 [4]: 4.92

Compound: CCCCS[C@H]1CC(=O)[C@@H]2OC[C@H]1O2
- IC50 [1]: Not Active
- IC50 [2]: Not Active

Compound: COc1cccc2c1C(=O)c1c(O)c3c(c(O)c1C2=O)C[C@@](O)(C(=O)CO)C[C@@H]3O[C@H]1C[C@H](N)[C@H](O)[C@H](C)O1 [DOXORUBICIN]
- pIC50 [1]: 6.62
- pIC50 [2]: 6.17

Compound: Cc1ccc(S[C@H]2CC(=O)[C@@H]3OC[C@H]2O3)cc1
- pIC50 [1]: 4.89
- pIC50 [2]: 4.56

Compound: O=c1[nH]cc(F)c(=O)[nH]1 [FLUOROURACIL]
- pIC50 [1]: 3.41
- pIC50 [2]: 3.69

Compound: Cc1ccc(S[C@H]2CC(O)[C@@H]3OC[C@H]2O3)cc1 (some centres undefined)
- IC50 [1]: Not Active
- IC50 [2]: Not Active

Compound: O=C1C(Br)=C[C@H]2CO[C@@H]1O2
- pIC50 [1]: 5.33
- pIC50 [2]: 4.86

Compound: O=C1C[C@H](n2c(=O)oc3ccccc32)[C@H]2CO[C@@H]1O2
- pIC50 [1]: 5.06
- pIC50 [2]: 4.65
